Laboratory results as given in paper PMC11742723, “The clinical-stage drug BTZ-043 accumulates in murine tuberculosis lesions and efficiently acts against Mycobacterium tuberculosis” (Nature Communications, 2025).
Where “and” joins values, the source holds several entries; their conditions need not be identical. Equal entries are not always repeated.

Tests used:
[1] = Impact of γ-irradiation on BTZ-043 in spiked liver mimetic tissue cryosections; design: species or system mouse
Mtb H37Rv = test: BTZ-043 dose escalation study in Mtb-infected BALB/c mice (pulmonary CFU); assay type: in vivo, Mycobacterium tuberculosis; conditions: for pulmonary CFU counts / mouse: individual female mice
Mtb = system: Mtb; design: method as in PMID 28821804; conditions: NOS2-deficient mice, 50 mg/kg/day, cited from earlier work
[2] = BTZ-043 spiked liver homogenate section (9.7 µg/g), no irradiation, LC-MS/MS
[3] = BALB/c, 8 weeks, 3 highest doses (250-1000 mg/kg/day)

C[C@H]1COC2(CCN(c3nc(=O)c4cc(C(F)(F)F)cc([N+](=O)[O-])c4s3)CC2)O1 [BTZ-043]
Extract concentration, technical replicate 1 [1, 2]: 0.0195 µg/mL and 0.0179 µg/mL and 0.0233 µg/mL and 0.0135 µg/mL and 0.0216 µg/mL and 0.0204 µg/mL and 0.0187 µg/mL | Extract concentration, technical replicate 2 [1, 2]: 0.0197 µg/mL and 0.0204 µg/mL and 0.0241 µg/mL and 0.0156 µg/mL and 0.0268 µg/mL and 0.0221 µg/mL and 0.0218 µg/mL | ng/mg lung tissue, Mean ([1]; BTZ-043 spiked liver homogenate section (9.7 µg/g), no irradiation, mean of technical replicates): 6.12 ng/mg and 5.86 ng/mg and 7.42 ng/mg and 4.56 ng/mg and 7.66 ng/mg and 7.15 ng/mg and 6.78 ng/mg | Conc. (Targetlynx export, sample extract) ([1]; BTZ-043 spiked liver homogenate section, no irradiation, injections 1 and a, internal standard reserpine): 1.87E-02 | impact of γ-irradiation on the concentration and distribution of BTZ-043 ([1]; liver mimetic cryosections, 5.85 kGy): does not impact | BTZ-043 concentration in liver mimetic cryosection, outlier removed ([1]; spiked liver mimetic tissue, rout method outlier): 24.95 ng/mg | pulmonary CFU counts / mouse (Mtb H37Rv; 50 mg/kg BTZ-043, 4 weeks of treatment): 555882 CFU counts / mouse and 499154 CFU counts / mouse and 2156250 CFU counts / mouse and 558800 CFU counts / mouse and 525176 CFU counts / mouse and 501563 CFU counts / mouse | pulmonary CFU counts / mouse (Mtb H37Rv; 50 mg/kg BTZ-043, 6 weeks of treatment): 151667 CFU counts / mouse and 250364 CFU counts / mouse and 426300 CFU counts / mouse and 300706 CFU counts / mouse and 257455 CFU counts / mouse and 439714 CFU counts / mouse | pulmonary CFU counts / mouse (Mtb H37Rv; 50 mg/kg BTZ-043, 8 weeks of treatment): 287143 CFU counts / mouse and 182471 CFU counts / mouse and 166050 CFU counts / mouse and 110400 CFU counts / mouse and 84000 CFU counts / mouse | pulmonary CFU counts / mouse (Mtb H37Rv; 100 mg/kg BTZ-043, 4 weeks of treatment): 416625 CFU counts / mouse and 429231 CFU counts / mouse and 396000 CFU counts / mouse and 458571 CFU counts / mouse and 415800 CFU counts / mouse and 472500 CFU counts / mouse | pulmonary CFU counts / mouse (Mtb H37Rv; 100 mg/kg BTZ-043, 6 weeks of treatment): 34200 CFU counts / mouse and 61091 CFU counts / mouse and 157500 CFU counts / mouse and 207692 CFU counts / mouse and 197308 CFU counts / mouse and 173438 CFU counts / mouse | pulmonary CFU counts / mouse (Mtb H37Rv; 100 mg/kg BTZ-043, 8 weeks of treatment): 156000 CFU counts / mouse and 66000 CFU counts / mouse and 39129 CFU counts / mouse and 101769 CFU counts / mouse and 139765 CFU counts / mouse and 67765 CFU counts / mouse | pulmonary CFU counts / mouse (Mtb H37Rv; 250 mg/kg BTZ-043, 4 weeks of treatment): 634800 CFU counts / mouse and 254308 CFU counts / mouse and 513000 CFU counts / mouse and 409500 CFU counts / mouse and 484500 CFU counts / mouse and 249923 CFU counts / mouse | pulmonary CFU counts / mouse (Mtb H37Rv; 250 mg/kg BTZ-043, 6 weeks of treatment): 49400 CFU counts / mouse and 35888 CFU counts / mouse and 49309 CFU counts / mouse and 39877 CFU counts / mouse and 52521 CFU counts / mouse and 45750 CFU counts / mouse | pulmonary CFU counts / mouse (Mtb H37Rv; 250 mg/kg BTZ-043, 8 weeks of treatment): 25080 CFU counts / mouse and 15273 CFU counts / mouse and 21930 CFU counts / mouse and 15218 CFU counts / mouse and 42694 CFU counts / mouse and 15750 CFU counts / mouse | pulmonary CFU counts / mouse (Mtb H37Rv; 500 mg/kg BTZ-043, 4 weeks of treatment): 154286 CFU counts / mouse and 324000 CFU counts / mouse and 360000 CFU counts / mouse and 251750 CFU counts / mouse and 312857 CFU counts / mouse and 230769 CFU counts / mouse | pulmonary CFU counts / mouse (Mtb H37Rv; 500 mg/kg BTZ-043, 6 weeks of treatment): 54000 CFU counts / mouse and 150231 CFU counts / mouse and 60750 CFU counts / mouse and 101769 CFU counts / mouse and 56100 CFU counts / mouse and 15346 CFU counts / mouse | pulmonary CFU counts / mouse (Mtb H37Rv; 500 mg/kg BTZ-043, 8 weeks of treatment): 13200 CFU counts / mouse and 24750 CFU counts / mouse and 35550 CFU counts / mouse and 13714 CFU counts / mouse and 20250 CFU counts / mouse and 14657 CFU counts / mouse | pulmonary CFU counts / mouse (Mtb H37Rv; 1000 mg/kg BTZ-043, 4 weeks of treatment): 228000 CFU counts / mouse and 325600 CFU counts / mouse and 166909 CFU counts / mouse and 226154 CFU counts / mouse and 205800 CFU counts / mouse and 140000 CFU counts / mouse | pulmonary CFU counts / mouse (Mtb H37Rv; 1000 mg/kg BTZ-043, 6 weeks of treatment): 42075 CFU counts / mouse and 43131 CFU counts / mouse and 54450 CFU counts / mouse and 36450 CFU counts / mouse and 58900 CFU counts / mouse and 98571 CFU counts / mouse | pulmonary CFU counts / mouse (Mtb H37Rv; 1000 mg/kg BTZ-043, 8 weeks of treatment): 9208 CFU counts / mouse and 16615 CFU counts / mouse and 22100 CFU counts / mouse and 11500 CFU counts / mouse and 17738 CFU counts / mouse and 28600 CFU counts / mouse | reduction of bacterial burden in comparison to the vehicle control group (Mtb H37Rv; BALB/c lungs, 4 weeks of therapy, all doses 50-1000 mg/kg/day microcrystalline BTZ-043, oral 5 days/week): > 0.7 log10 CFU | antimycobacterial activity compared to INH (25 mg/kg/day) (Mtb H37Rv; BALB/c, 6 weeks, 50 mg/kg/day): reduced | antimycobacterial activity compared to INH (25 mg/kg/day) (Mtb H37Rv; BALB/c, 6 weeks, 100 mg/kg/day): comparable | antimycobacterial activity compared to INH (25 mg/kg/day) (Mtb H37Rv; BALB/c, 6 weeks, 250, 500 and 1000 mg/kg/day): significantly greater antimycobacterial activity than the first-line drug INH | efficacy compared to INH therapy (Mtb H37Rv; [3]): significantly increased efficacy | pulmonary bacterial burden lower than the vehicle control group (Mtb H37Rv; [3]): more than 2.4 log10 CFU | lowest dose with maximum effect (LME) (Mtb H37Rv; mouse model of TB (BALB/c), microcrystalline BTZ-043): 250 mg/kg/day | bactericidal activity (Mtb; 4 weeks of treatment): profound bactericidal activity | effect on bacterial burden (Mtb; two weeks): hardly reduced the bacterial burden
